Reference: PubChem BioAssay (NCI)
Several values for one entry are separate records, joined by “and”; a condition that tells them apart may be missing. Equal values may be shown once.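 Grown in 96-well plates, cells were treated for 48 hours with each compound at five concentrations. Insufficient inhibition: endpoint recorded as highest concentration tested. At the GI50, growth is halved. At the TGI there is no net growth.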

What was measured:
Assay in all cases: NCI anticancer screen, dose series, 48 h
SF-268 CNS = system: SF-268 CNS
MDA-MB-435 = system: MDA-MB-435
SNB-75 CNS = system: SNB-75 CNS
K-562 leukemia = system: K-562 leukemia
SK-OV-3 ovarian = system: SK-OV-3 ovarian
NCI-H226 lung = system: NCI-H226 lung
HL-60(TB) leukemia = system: HL-60(TB) leukemia
EKVX NSCLC = system: EKVX NSCLC
RXF 393 renal = system: RXF 393 renal
CAKI-1 renal = system: CAKI-1 renal
HOP-92 NSCLC = system: HOP-92 NSCLC
PC-3 prostate = system: PC-3 prostate
HCT-15 colon = system: HCT-15 colon
TK-10 renal = system: TK-10 renal
SF-295 CNS = system: SF-295 CNS
HOP-62 NSCLC = system: HOP-62 NSCLC
DU-145 prostate = system: DU-145 prostate
786-0 renal = system: 786-0 renal
KM12 colon = system: KM12 colon
HT29 colon = system: HT29 colon
MALME-3M melanoma = system: MALME-3M melanoma
UACC-257 melanoma = system: UACC-257 melanoma
NCI-H460 lung = system: NCI-H460 lung
HS 578T breast = system: HS 578T breast
SN12C renal = system: SN12C renal
RPMI-8226 leukemia = system: RPMI-8226 leukemia
SK-MEL-2 melanoma = system: SK-MEL-2 melanoma
T-47D breast = system: T-47D breast
OVCAR-3 ovarian = system: OVCAR-3 ovarian
UACC-62 melanoma = system: UACC-62 melanoma
IGROV1 ovarian = system: IGROV1 ovarian
CCRF-CEM leukemia = system: CCRF-CEM leukemia
OVCAR-5 ovarian = system: OVCAR-5 ovarian
SF-539 CNS = system: SF-539 CNS
MOLT-4 leukemia = system: MOLT-4 leukemia
M14 melanoma = system: M14 melanoma
COLO 205 colon = system: COLO 205 colon
NCI/ADR-RES ovarian = system: NCI/ADR-RES ovarian
SNB-19 CNS = system: SNB-19 CNS
NCI-H522 lung = system: NCI-H522 lung
HCC-2998 colon = system: HCC-2998 colon
LOX IMVI melanoma = system: LOX IMVI melanoma
A549 NSCLC = system: A549 NSCLC
ACHN renal = system: ACHN renal
BT-549 breast = system: BT-549 breast
NCI-H23 lung = system: NCI-H23 lung
HCT-116 colon = system: HCT-116 colon
OVCAR-4 ovarian = system: OVCAR-4 ovarian
UO-31 renal = system: UO-31 renal
MCF7 breast = system: MCF7 breast
U251 CNS = system: U251 CNS
SR leukemia = system: SR leukemia
OVCAR-8 ovarian = system: OVCAR-8 ovarian
A498 renal = system: A498 renal
MDA-MB-231 breast = system: MDA-MB-231 breast
SK-MEL-28 melanoma = system: SK-MEL-28 melanoma
SW-620 colon = system: SW-620 colon

In the case of `CSc1ccc(-c2cc(-c3nc4ccccc4[nH]3)nc3[nH]c(-c4nc5ccccc5[nH]4)cc(=O)c23)cc1`, the TGI (SF-268 CNS) is reported as > 100 µM, the TGI (MDA-MB-435) is reported as > 100 µM and the TGI (SNB-75 CNS) is reported as > 100 µM. The TGI (K-562 leukemia) was > 100 µM, the TGI (SK-OV-3 ovarian) was > 100 µM and the TGI (NCI-H226 lung) was > 100 µM. The TGI (HL-60(TB) leukemia) was > 100 µM, the TGI (EKVX NSCLC) was > 100 µM and the TGI (RXF 393 renal) was > 100 µM. For the same compound, the TGI (CAKI-1 renal) was > 100 µM, the TGI (HOP-92 NSCLC) was > 100 µM and the TGI (PC-3 prostate) was > 100 µM. For the same compound, the TGI (HCT-15 colon) was > 100 µM, the TGI (TK-10 renal) was > 100 µM and the TGI (SF-295 CNS) was > 100 µM. The TGI (HOP-62 NSCLC) was > 100 µM, the TGI (DU-145 prostate) was > 100 µM and the TGI (786-0 renal) was > 100 µM. The TGI (KM12 colon) was > 100 µM, the TGI (HT29 colon) was > 100 µM and the TGI (MALME-3M melanoma) was > 100 µM. For the same compound, the TGI (UACC-257 melanoma) was > 100 µM, the TGI (NCI-H460 lung) was > 100 µM and the TGI (HS 578T breast) was > 100 µM. For the same compound, the TGI (SN12C renal) was > 100 µM, the TGI (RPMI-8226 leukemia) was > 100 µM and the TGI (SK-MEL-2 melanoma) was > 100 µM. The TGI (T-47D breast) was > 100 µM, the TGI (OVCAR-3 ovarian) was > 100 µM and the TGI (UACC-62 melanoma) was > 100 µM. The TGI (IGROV1 ovarian) was > 100 µM, the TGI (CCRF-CEM leukemia) was > 100 µM and the TGI (OVCAR-5 ovarian) was > 100 µM. The TGI (SF-539 CNS) was > 100 µM, the TGI (MOLT-4 leukemia) was > 100 µM and the TGI (M14 melanoma) was > 100 µM. The TGI (COLO 205 colon) was > 100 µM, the TGI (NCI/ADR-RES ovarian) was > 100 µM and the TGI (SNB-19 CNS) was > 100 µM. The TGI (NCI-H522 lung) was > 100 µM, the TGI (HCC-2998 colon) was 42.7 µM and the TGI (LOX IMVI melanoma) was > 100 µM. The TGI (A549 NSCLC) was > 100 µM, the TGI (ACHN renal) was > 100 µM and the TGI (BT-549 breast) was > 100 µM. The TGI (NCI-H23 lung) was > 100 µM, the TGI (HCT-116 colon) was > 100 µM and the TGI (OVCAR-4 ovarian) was > 100 µM. The TGI (UO-31 renal) was > 100 µM, the TGI (MCF7 breast) was > 100 µM and the TGI (U251 CNS) was > 100 µM. For the same compound, the TGI (SR leukemia) was > 100 µM and the TGI (OVCAR-8 ovarian) was > 100 µM.

`O=C1C=CC2(C=C1)CCN=c1c(O)c3c(c(O)c12)=NC=N3` was tested, and the TGI (SF-268 CNS) was 26.8 µM and > 100 µM, the GI50 (SNB-75 CNS) was 17.8 µM and > 100 µM and the TGI (SNB-75 CNS) was 35.2 µM and > 100 µM. For the same compound, the TGI (K-562 leukemia) was 42.6 µM and > 100 µM, the GI50 (SK-OV-3 ovarian) was 18.3 µM and > 100 µM and the TGI (SK-OV-3 ovarian) was 33.2 µM and > 100 µM. The GI50 (NCI-H226 lung) was 19 µM and > 100 µM, the TGI (NCI-H226 lung) was 38.4 µM and > 100 µM and the GI50 (HL-60(TB) leukemia) was 8.02 µM and 59.9 µM. The TGI (HL-60(TB) leukemia) was > 100 µM, the GI50 (EKVX NSCLC) was 17 µM and > 100 µM and the TGI (EKVX NSCLC) was 31.7 µM and > 100 µM. For the same compound, the GI50 (RXF 393 renal) was 16.2 µM and > 100 µM, the TGI (RXF 393 renal) was 30.1 µM and > 100 µM and the GI50 (A498 renal) was 19.2 µM and > 100 µM. For the same compound, the TGI (A498 renal) was 33.5 µM and > 100 µM, the GI50 (MDA-MB-231 breast) was 14.4 µM and > 100 µM and the TGI (MDA-MB-231 breast) was 31.8 µM and > 100 µM. For the same compound, the TGI (CAKI-1 renal) was 27.5 µM and > 100 µM, the GI50 (HOP-92 NSCLC) was 14.8 µM and > 100 µM and the TGI (HOP-92 NSCLC) was 28.9 µM and > 100 µM. The GI50 (SK-MEL-28 melanoma) was 15.6 µM and > 100 µM, the TGI (SK-MEL-28 melanoma) was 29.4 µM and > 100 µM and the GI50 (PC-3 prostate) was 10.1 µM and > 100 µM. The TGI (PC-3 prostate) was 35 µM and > 100 µM, the GI50 (HCT-15 colon) was 14.5 µM and > 100 µM and the TGI (HCT-15 colon) was 29.9 µM and > 100 µM. The GI50 (TK-10 renal) was 22.7 µM and > 100 µM, the TGI (TK-10 renal) was 38.4 µM and > 100 µM and the GI50 (SF-295 CNS) was 20 µM and > 100 µM. The TGI (SF-295 CNS) was 34.4 µM and > 100 µM, the GI50 (HOP-62 NSCLC) was 16.3 µM and > 100 µM and the TGI (HOP-62 NSCLC) was 30.3 µM and > 100 µM. The GI50 (DU-145 prostate) was 14.7 µM and > 100 µM, the TGI (DU-145 prostate) was 28 µM and > 100 µM and the GI50 (786-0 renal) was 17.6 µM and > 100 µM. For the same compound, the TGI (786-0 renal) was 32.1 µM and > 100 µM, the GI50 (KM12 colon) was 14.4 µM and > 100 µM and the TGI (KM12 colon) was 29.1 µM and > 100 µM. The GI50 (SW-620 colon) was 10.1 µM and > 100 µM, the TGI (SW-620 colon) was 32.2 µM and > 100 µM and the GI50 (HT29 colon) was 20.3 µM and > 100 µM. The TGI (HT29 colon) was 47.3 µM and > 100 µM, the TGI (MALME-3M melanoma) was 4.42 µM and the TGI (UACC-257 melanoma) was 21.6 µM and > 100 µM. For the same compound, the GI50 (NCI-H460 lung) was 12.2 µM and > 100 µM, the TGI (NCI-H460 lung) was 30 µM and > 100 µM and the TGI (HS 578T breast) was 71.4 µM and > 100 µM. For the same compound, the GI50 (SN12C renal) was 14.5 µM and > 100 µM, the TGI (SN12C renal) was 29.4 µM and > 100 µM and the GI50 (RPMI-8226 leukemia) was 12.2 µM and > 100 µM. For the same compound, the TGI (RPMI-8226 leukemia) was 42.3 µM and > 100 µM, the TGI (SK-MEL-2 melanoma) was 16 µM and > 100 µM and the TGI (T-47D breast) was 25.2 µM and > 100 µM. The TGI (OVCAR-3 ovarian) was 25 µM and > 100 µM, the TGI (IGROV1 ovarian) was 31 µM and the TGI (CCRF-CEM leukemia) was > 100 µM. For the same compound, the GI50 (OVCAR-5 ovarian) was 22.4 µM and > 100 µM, the TGI (OVCAR-5 ovarian) was 37.4 µM and > 100 µM and the GI50 (SF-539 CNS) was 13.8 µM and > 100 µM. The TGI (SF-539 CNS) was 26.9 µM and > 100 µM, the GI50 (MOLT-4 leukemia) was 21.7 µM and > 100 µM and the TGI (MOLT-4 leukemia) was > 100 µM. For the same compound, the GI50 (M14 melanoma) was 11.3 µM and > 100 µM, the TGI (M14 melanoma) was 23.7 µM and > 100 µM and the GI50 (COLO 205 colon) was 21.2 µM and > 100 µM. The TGI (COLO 205 colon) was 36.7 µM and > 100 µM, the GI50 (NCI/ADR-RES ovarian) was 22.7 µM and > 100 µM and the TGI (NCI/ADR-RES ovarian) was > 100 µM. For the same compound, the TGI (SNB-19 CNS) was 27.1 µM, the TGI (NCI-H522 lung) was 16.6 µM and > 100 µM and the GI50 (HCC-2998 colon) was 18.5 µM and > 100 µM. The TGI (HCC-2998 colon) was 32.6 µM and > 100 µM, the TGI (LOX IMVI melanoma) was 15.1 µM and > 100 µM and the GI50 (A549 NSCLC) was 17.9 µM and > 100 µM. The TGI (A549 NSCLC) was 39.2 µM and > 100 µM, the GI50 (ACHN renal) was 12.6 µM and > 100 µM and the TGI (ACHN renal) was 25.7 µM and > 100 µM. For the same compound, the GI50 (BT-549 breast) was 18.1 µM and > 100 µM, the TGI (BT-549 breast) was 32.4 µM and > 100 µM and the TGI (NCI-H23 lung) was 19.5 µM and > 100 µM. The TGI (HCT-116 colon) was 22.5 µM and > 100 µM, the GI50 (OVCAR-4 ovarian) was 15.9 µM and > 100 µM and the TGI (OVCAR-4 ovarian) was 29.7 µM and > 100 µM. The GI50 (UO-31 renal) was 14.5 µM and > 100 µM, the TGI (UO-31 renal) was 30.5 µM and > 100 µM and the GI50 (MCF7 breast) was 11.9 µM and > 100 µM. The TGI (MCF7 breast) was 28.7 µM and > 100 µM, the GI50 (U251 CNS) was 10.6 µM and > 100 µM and the TGI (U251 CNS) was 24.1 µM and > 100 µM. For the same compound, the GI50 (SR leukemia) was 10.6 µM and 93 µM, the TGI (SR leukemia) was > 100 µM and the GI50 (OVCAR-8 ovarian) was 14 µM and > 100 µM. For the same compound, the TGI (OVCAR-8 ovarian) was 37.3 µM and > 100 µM.
